The conditions of data set [1]: background; cited from earlier work.
Data set [2] is described as follows: Water-wettability by water contact angle analysis. The format is physicochemical. From the text: Data are given relevant to water-wettability determined by water contact angle analysis, true density determined by Helium pycnometry, and surface area determined by mercury porosimetry (Table 2).
For data set [3] the following is noted: background, cited from earlier work.
Data set [4] in a line: Solubilization kinetics / solubility test (oversaturation, paddle method, continuous flow cell). The text has this:
This test, effected within a few minutes from the beginning of the solubilization process, provides data to be considered as one of the most important parameters for the biopharmaceutical evaluation of the products.

Structures are written as SMILES. Converted amounts (≈) assume the structure as drawn.

Take `CN1C(C(=O)Nc2ccccn2)=C(O)c2ccccc2S1(=O)=O` [piroxicam]: the “solubility (in words)” value in data set [1] was “poorly soluble in water and in biological fluids at physiological pH values”. This compound came in with a water contact angle in data set [2] of 76 °. In data set [3], the “analgesic and anti-inflammatory activity (in words)” value was “considerable analgesic and anti-inflammatory activity”. Further, in data set [3] (oral and rectal routes), the “absorption (in words)” value is “slow and gradual absorption via both the oral and rectal routes”. Further, the “C max (oversaturation value)” value in data set [4] (acetate buffer pH 5.0, 500 ml, 125 rpm, 37 °C, product at least 10 times saturation quantity) came out at 30000 ng/mL. In data set [4] (acetate buffer, pH 5, aqueous buffer), the solubility (thermodynamic) came to 30 µg/mL (≈ 90.5 µM).

Usually thermodynamic solubility stands for the concentration in solution at equilibrium with solid.

The values above are taken from patent publication US5164380A, “Process for preparing piroxicam/cyclodextrin complexes, the products obtained and their pharmaceutical compositions” (Chiesi Farmaceutici S.p.A., priority 1990, dated 1992).
